# Like-named read-outs stand apart in the source and are kept apart here.
# Legend:
# Test in all cases: In vitro antibacterial activity (MIC), agar dilution
# [1] = tested on: STAPHYLOCOCCUS AUREUS ATCC 6538P; format: cell-based; details: S. aureus ATCC 6538P; BHI agar, 35-37 °C, 20-24 h
# [2] = tested on: STAPHYLOCOCCUS AUREUS A5177; format: cell-based; details: S. aureus A5177; BHI agar, 35-37 °C, 20-24 h
# [3] = tested on: STAPHYLOCOCCUS AUREUS A-5278; format: cell-based; details: S. aureus A-5278; BHI agar, 35-37 °C, 20-24 h
# [4] = tested on: STAPHYLOCOCCUS AUREUS CMX 642A; format: cell-based; details: S. aureus CMX 642A; BHI agar, 35-37 °C, 20-24 h
# [5] = tested on: STAPHYLOCOCCUS AUREUS NCTC10649M; format: cell-based; details: S. aureus NCTC10649M; BHI agar, 35-37 °C, 20-24 h
# [6] = tested on: STAPHYLOCOCCUS EPIDERMIDIS 3519; format: cell-based
# [7] = tested on: STREPTOCOCCUS BOVIS A-5169; format: cell-based; details: S. bovis A-5169; BHI agar, 35-37 °C, 20-24 h
# STR[…] 508 = format: cell-based, Streptococcus agalactiae; details: S. agalactiae CMX 508; BHI agar, 35-37 °C, 20-24 h
# Method: (§1) Representative compounds of the present invention were assayed in vitro for antibacterial activity as follows: Twelve petri dishes containing successive aqueous dilutions of the test compound mixed with 10 mL of sterilized Brain Heart Infusion (BHI) agar (Difco 0418-01-5) were prepared. Each plate was inoculated with 1:100 (or 1:10 for slow-growing strains, such as Micrococcus and Streptococcus) dilutions of up to 32 different microorganisms, using a Steers replicator block. The inoculated plates were incubated at 35°-37° C. for 20 to 24 hours. In addition, a control plate, using BHI agar containing no test compound, was prepared and incubated at the beginning and end of each test.
# (§2) An additional plate containing a compound having known susceptibility patterns for the organisms being tested and belonging to the same antibiotic class as the test compound was also prepared and incubated as a further control, as well as to provide test-to-test comparability. Erythromycin A was used for this purpose.
# (§3) After incubation, each plate was examined. The minimum inhibitory concentration (MIC) was defined as the lowest concentration of drug yielding no growth, a slight haze, or sparsely isolated colonies on the inoculum spot as compared to the growth control.
# [8] = tested on: STREPTOCOCCUS PYOGENES 930; format: cell-based; details: S. pyogenes 930; BHI agar, 35-37 °C, 20-24 h
# [9] = tested on: STREPTOCOCCUS PYOGENES PIU 2548; format: cell-based; details: S. pyogenes PIU 2548; BHI agar, 35-37 °C, 20-24 h
# M[…] ATCC 4698 = format: cell-based, Micrococcus luteus; details: M. luteus ATCC 4698; BHI agar, 35-37 °C, 20-24 h
# Method: as §1, §2, §3
# M[…] ATCC 9341 = format: cell-based, Micrococcus luteus; details: M. luteus ATCC 9341; BHI agar, 35-37 °C, 20-24 h
# Method: as §1, §2, §3
# ESCHERICHIA COLI JUHL = format: cell-based
# ESCHERICHIA COLI SS = format: cell-based; details: E. coli SS; BHI agar, 35-37 °C, 20-24 h
# ESCHERICHIA COLI DC-2 = format: cell-based; details: E. coli DC-2; BHI agar, 35-37 °C, 20-24 h
# ESCHERICHIA COLI H560 = format: cell-based; details: E. coli H560; BHI agar, 35-37 °C, 20-24 h
# [10] = tested on: ENTEROBACTER AEROGENES ATCC 13048; format: cell-based; details: E. aerogenes ATCC 13048; BHI agar, 35-37 °C, 20-24 h
# [11] = tested on: KLEBSIELLA PNEUMONIAE ATCC 8045; format: cell-based; details: K. pneumoniae ATCC 8045; BHI agar, 35-37 °C, 20-24 h
# [12] = tested on: PROVIDENCIA STUARTII CMX 640; format: cell-based
# [13] = tested on: PSEUDOMONAS AERUGINOSA BMH10; format: cell-based; details: P. aeruginosa BMH10; BHI agar, 35-37 °C, 20-24 h
# [14] = tested on: PSEUDOMONAS AERUGINOSA 5007; format: cell-based; details: P. aeruginosa 5007; BHI agar, 35-37 °C, 20-24 h
# [15] = tested on: PSEUDOMONAS AERUGINOSA K799/WT; format: cell-based; details: P. aeruginosa K799/WT; BHI agar, 35-37 °C, 20-24 h
# PSEUDOMONAS CEPACIA 296I = format: cell-based; details: P. cepacia 296I; BHI agar, 35-37 °C, 20-24 h
# [16] = tested on: PSEUDOMONAS AERUGINOSA DPHD-5263; format: cell-based; details: P. aeruginosa DPHD-5263; BHI agar, 35-37 °C, 20-24 h
# [17] = tested on: NOCARDIA ARSTEROIDES ATCC 9970; format: cell-based; details: Nocardia ATCC 9970; BHI agar, 35-37 °C, 20-24 h
# [18] = tested on: ACINETOBACTER CALCOACETICUS CMX 669; format: cell-based; details: A. calcoaceticus CMX 669; BHI agar, 35-37 °C, 20-24 h
# [19] = S. epidermidis 3519, BHI agar, 35-37 °C, 20-24 h
# [20] = P. stuartii CMX 640, BHI agar, 35-37 °C, 20-24 h
SMILES,minimum inhibitory concentration (MIC) [1],minimum inhibitory concentration (MIC) [2],minimum inhibitory concentration (MIC) [3],minimum inhibitory concentration (MIC) [4],minimum inhibitory concentration (MIC) [5],minimum inhibitory concentration (MIC) [7],minimum inhibitory concentration (MIC) (STR[…] 508),minimum inhibitory concentration (MIC) [8],minimum inhibitory concentration (MIC) [9],minimum inhibitory concentration (MIC) (M[…] ATCC 4698),minimum inhibitory concentration (MIC) (M[…] ATCC 9341),minimum inhibitory concentration (MIC) (ESCHERICHIA COLI DC-2),minimum inhibitory concentration (MIC) (ESCHERICHIA COLI H560),minimum inhibitory concentration (MIC) [10],minimum inhibitory concentration (MIC) [11],minimum inhibitory concentration (MIC) [13],minimum inhibitory concentration (MIC) [14],minimum inhibitory concentration (MIC) [15],minimum inhibitory concentration (MIC) [16],minimum inhibitory concentration (MIC) [17],also measured
"CC[C@H]1OC(=O)[C@H](C)[C@@H](O[C@H]2C[C@@](C)(OC)[C@@H](O)[C@H](C)O2)[C@H](C)[C@@H](O[C@@H]2O[C@H](C)C[C@H](N(C)C)[C@H]2O)[C@](C)(O)C[C@@H](C)C(=O)[C@H](C)[C@@H](O)[C@]1(C)O [Ery A, Erythromycin A, reference compound]",0.1,1.56,> 100,0.2,0.2,0.02,0.02,> 100,6.2,0.2,0.02,100,25,> 100,25,100,> 100,100,100,0.05,minimum inhibitory concentration (MIC) [6]: 0.1; minimum inhibitory concentration (MIC) (ESCHERICHIA COLI JUHL): 50; minimum inhibitory concentration (MIC) (ESCHERICHIA COLI SS): 0.2; minimum inhibitory concentration (MIC) [12]: > 100; minimum inhibitory concentration (MIC) (PSEUDOMONAS CEPACIA 296I): > 100
CC[C@H]1OC(=O)[C@H](C)C[C@H](C)[C@@H](O[C@@H]2O[C@H](C)C[C@H](N(C)C)[C@H]2O)[C@](C)(OC)C[C@@H](C)C(=O)[C@H](C)[C@H]2N(CCCCc3ccccc3)C(=O)O[C@]12C [Ex. 4],1.56,1.56,50,1.56,1.56,0.02,0.1,6.2,0.2,1.56,1.56,50,25,> 100,> 100,> 100,> 100,100,100,3.1,"minimum inhibitory concentration (MIC) [6, 19]: 1.56; minimum inhibitory concentration (MIC) (ESCHERICHIA COLI JUHL; E. coli JUHL, BHI agar, 35-37 °C, 20-24 h): > 100; minimum inhibitory concentration (MIC) (ESCHERICHIA COLI SS): 1.56; minimum inhibitory concentration (MIC) [12, 20]: > 100; minimum inhibitory concentration (MIC) [18]: 100"
CC[C@H]1OC(=O)[C@H](C)C[C@H](C)[C@@H](O[C@@H]2O[C@H](C)C[C@H](N(C)C)[C@H]2O)[C@](C)(OC)C[C@@H](C)C(=O)[C@H](C)[C@H]2N(CCc3ccc(Oc4ccccc4)cc3)C(=O)O[C@]12C [Ex. 5],12.5,6.2,25,12.5,6.2,1.56,1.56,6.2,3.1,1.56,3.1,12.5,> 100,> 100,> 100,> 100,> 100,> 100,> 100,3.1,"minimum inhibitory concentration (MIC) [6, 19]: 12.5; minimum inhibitory concentration (MIC) [12, 20]: > 100; minimum inhibitory concentration (MIC) (PSEUDOMONAS CEPACIA 296I): 100; minimum inhibitory concentration (MIC) [18]: > 100"
CC[C@H]1OC(=O)[C@H](C)C[C@H](C)[C@@H](O[C@@H]2O[C@H](C)C[C@H](N(C)C)[C@H]2O)[C@](C)(OC)C[C@@H](C)C(=NOC)[C@H](C)[C@@H](O)[C@]1(C)O [Ex. 6],6.2,6.2,> 100,6.2,6.2,0.39,0.39,> 100,0.78,0.39,0.39,0.78,50,> 100,> 100,> 100,> 100,> 100,50,0.78,"minimum inhibitory concentration (MIC) [6, 19]: 12.5; minimum inhibitory concentration (MIC) [12, 20]: 100; minimum inhibitory concentration (MIC) (PSEUDOMONAS CEPACIA 296I): 12.5; minimum inhibitory concentration (MIC) [18]: > 100"
